Measurements published in ChEMBL document CHEMBL5252654 (ACS Med Chem Lett, 2023).

Legend:
HeLa [1] = assay: Cytotoxicity against human HeLa cells assessed as reduction in cell viability after 72 hrs by MTT assay; assay type: functional, cell-based
[2] = target: T1, cGMP-inhibited 3',5'-cyclic phosphodiesterase 3B (Homo sapiens, UniProt Q13370); assay: Binding affinity to human recombinant PDE3B expressed as Escherichia coli assessed as dissociation constant
[3] = target: T1, cGMP-inhibited 3',5'-cyclic phosphodiesterase 3B; assay: Inhibition of PDE3B (unknown origin)
Ribonuclease SLFN12 [4] = target: T2, Ribonuclease SLFN12 (Homo sapiens, UniProt Q8IYM2); assay: Binding affinity to human recombinant SLFN12 expressed as Escherichia coli assessed as dissociation constant
T2 sequence (Q8IYM2 whole entry): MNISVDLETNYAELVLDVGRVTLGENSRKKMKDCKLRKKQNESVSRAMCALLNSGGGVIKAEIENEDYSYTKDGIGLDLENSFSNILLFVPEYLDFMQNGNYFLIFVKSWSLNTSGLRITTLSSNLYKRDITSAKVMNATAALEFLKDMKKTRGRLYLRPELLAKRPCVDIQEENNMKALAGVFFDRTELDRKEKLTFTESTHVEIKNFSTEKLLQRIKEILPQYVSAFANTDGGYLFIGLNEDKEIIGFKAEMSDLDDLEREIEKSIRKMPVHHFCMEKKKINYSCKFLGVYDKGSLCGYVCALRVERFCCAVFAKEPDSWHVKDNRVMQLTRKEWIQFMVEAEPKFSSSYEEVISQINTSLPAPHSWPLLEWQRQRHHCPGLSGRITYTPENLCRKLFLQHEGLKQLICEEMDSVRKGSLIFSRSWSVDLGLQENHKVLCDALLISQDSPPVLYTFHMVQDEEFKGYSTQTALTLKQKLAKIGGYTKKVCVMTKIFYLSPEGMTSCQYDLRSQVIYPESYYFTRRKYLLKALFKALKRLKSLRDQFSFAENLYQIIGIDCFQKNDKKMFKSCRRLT

[5] = target: T3, cGMP-inhibited 3',5'-cyclic phosphodiesterase 3A (Homo sapiens, UniProt Q14432); assay: Binding affinity to PDE3A (unknown origin) assessed as dissociation constant
T3 sequence (Q14432 whole entry): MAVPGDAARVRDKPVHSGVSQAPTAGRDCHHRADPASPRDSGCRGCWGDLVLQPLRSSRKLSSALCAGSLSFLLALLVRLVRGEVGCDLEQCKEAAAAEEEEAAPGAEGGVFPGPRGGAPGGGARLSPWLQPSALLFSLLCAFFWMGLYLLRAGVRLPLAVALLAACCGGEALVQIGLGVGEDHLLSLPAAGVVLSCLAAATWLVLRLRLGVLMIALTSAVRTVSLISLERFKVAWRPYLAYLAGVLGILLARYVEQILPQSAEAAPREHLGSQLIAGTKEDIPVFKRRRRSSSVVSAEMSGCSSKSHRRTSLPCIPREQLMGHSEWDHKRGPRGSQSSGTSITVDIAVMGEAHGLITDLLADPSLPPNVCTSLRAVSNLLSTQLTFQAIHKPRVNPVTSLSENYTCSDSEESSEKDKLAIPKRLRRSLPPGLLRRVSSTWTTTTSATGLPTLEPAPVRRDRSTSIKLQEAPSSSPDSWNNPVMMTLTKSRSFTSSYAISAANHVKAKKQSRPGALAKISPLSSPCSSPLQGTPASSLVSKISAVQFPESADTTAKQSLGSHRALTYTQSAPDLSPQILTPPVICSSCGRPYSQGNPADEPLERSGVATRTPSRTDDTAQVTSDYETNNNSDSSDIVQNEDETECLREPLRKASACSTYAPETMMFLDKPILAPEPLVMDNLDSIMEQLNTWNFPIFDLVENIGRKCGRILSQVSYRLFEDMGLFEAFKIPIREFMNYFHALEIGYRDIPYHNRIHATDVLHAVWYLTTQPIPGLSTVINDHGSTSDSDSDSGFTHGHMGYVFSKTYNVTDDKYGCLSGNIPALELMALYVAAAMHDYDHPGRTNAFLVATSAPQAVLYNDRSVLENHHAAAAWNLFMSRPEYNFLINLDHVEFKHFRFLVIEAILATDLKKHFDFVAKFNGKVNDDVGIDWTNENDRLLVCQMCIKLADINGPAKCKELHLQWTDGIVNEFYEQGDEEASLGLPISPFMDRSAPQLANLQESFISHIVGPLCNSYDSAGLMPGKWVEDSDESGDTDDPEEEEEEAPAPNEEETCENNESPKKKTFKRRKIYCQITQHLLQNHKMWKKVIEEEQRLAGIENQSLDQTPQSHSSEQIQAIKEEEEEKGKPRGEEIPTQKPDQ

Ribonuclease SLFN12 [6] = target: T2, Ribonuclease SLFN12; assay: Binding affinity to SLFN12 (unknown origin) assessed as dissociation constant
[7] = target: T3, cGMP-inhibited 3',5'-cyclic phosphodiesterase 3A; assay: Inhibition of PDE3A (unknown origin)
Phosphodiesterase 3 = Phosphodiesterase 3 (Homo sapiens, UniProt Q14432+Q13370); assay: Inhibition of human recombinant PDE3 expressed in Escherichia coli
[8] = Antiproliferative activity against human QGY-7701 cells assessed as reduction in cell viability measured after 72 hrs by MTT assay; assay type: functional, cell-based; settings: QGY7701, 72 h
[9] = Antiplatelet activity against ADP-induced Wistar rat platelet aggregation assessed as inhibition of platelet aggregation; assay type: functional, cell-based
[10] = Inhibition of Rhesus monkey blood platelet aggregation at 4 mg/kg, po; assay type: functional; settings: Macaca mulatta
[11] = Antiplatelet aggregation activity in human rich plasma assessed as reduction in collagen-induced platelet aggregation; assay type: functional, cell-based
[12] = Antiplatelet aggregation activity in Sprague-Dawley rat platelet rich plasma assessed as reduction in ADP-induced platelet aggregation; assay type: functional, cell-based
[13] = Antiplatelet activity in rabbit platelet rich plasma assessed as inhibition of arachidonic acid-induced platelet aggregation; assay type: functional, cell-based; settings: Oryctolagus cuniculus
[14] = Antiplatelet aggregation activity in rhesus monkey platelet rich plasma assessed as reduction in collagen-induced platelet aggregation; assay type: functional, cell-based; settings: Macaca mulatta
[15] = Antiplatelet aggregation activity in rhesus monkey platelet rich plasma assessed as reduction in ADP-induced platelet aggregation; assay type: functional, cell-based; settings: Macaca mulatta
[16] = Antiplatelet aggregation activity in human rich plasma assessed as reduction in ADP-induced platelet aggregation; assay type: functional, cell-based
HeLa [17] = assay: Antiproliferative activity against human HeLa cells assessed as reduction in cell viability measured after 72 hrs by MTT assay; assay type: functional, cell-based
[18] = Antiplatelet activity in rabbit platelet rich plasma assessed as inhibition of thrombin-induced platelet aggregation; assay type: functional, cell-based; settings: Oryctolagus cuniculus
[19] = Half life in Wistar rat at 0.29 to 4.86 mg/kg, po; assay type: ADME, organism-based; settings: in vivo, dose 0.29-4.86 mg/kg
[20] = Inhibition of rhesus monkey blood platelet aggregation at 1 mg/kg, po; assay type: functional; settings: Macaca mulatta
[21] = Antiplatelet aggregation activity in dog rich plasma assessed as reduction in ADP-induced platelet aggregation; assay type: functional, cell-based; settings: Canis lupus familiaris
[22] = Half life in Beagle dog at 0.29 to 4.86 mg/kg, po; assay type: ADME, organism-based, Canis lupus familiaris; settings: in vivo, dose 0.29-4.86 mg/kg
[23] = Antiplatelet activity in rabbit platelet rich plasma assessed as inhibition of antigen-antibody-induced platelet aggregation; assay type: functional, cell-based; settings: Oryctolagus cuniculus
[24] = Antiplatelet activity in rabbit platelet rich plasma assessed as inhibition of collagen-induced platelet aggregation; assay type: functional, cell-based; settings: Oryctolagus cuniculus
[25] = Antiplatelet aggregation activity in Sprague-Dawley rat platelet rich plasma assessed as reduction in collagen-induced platelet aggregation; assay type: functional, cell-based
[26] = Antiplatelet aggregation activity in rabbit platelet rich plasma assessed as reduction in ADP-induced platelet aggregation; assay type: functional, cell-based; settings: Oryctolagus cuniculus
[27] = Antiplatelet aggregation activity in rabbit platelet-rich plasma assessed as reduction in ADP-induced aggregation incubated for 5 mins by aggregometry; assay type: functional, cell-based; settings: Oryctolagus cuniculus
HeLa [28] = assay: Antiproliferative activity against human HeLa cells assessed as reduction in cell growth; assay type: functional, cell-based
Oryctolagus cuniculus = assay: Antithrombotic activity in New Zealand White biolaser-induced oral dosed rabbit model assessed as reduction in thrombus mass; assay type: functional

T1 sequence (Q13370 whole entry): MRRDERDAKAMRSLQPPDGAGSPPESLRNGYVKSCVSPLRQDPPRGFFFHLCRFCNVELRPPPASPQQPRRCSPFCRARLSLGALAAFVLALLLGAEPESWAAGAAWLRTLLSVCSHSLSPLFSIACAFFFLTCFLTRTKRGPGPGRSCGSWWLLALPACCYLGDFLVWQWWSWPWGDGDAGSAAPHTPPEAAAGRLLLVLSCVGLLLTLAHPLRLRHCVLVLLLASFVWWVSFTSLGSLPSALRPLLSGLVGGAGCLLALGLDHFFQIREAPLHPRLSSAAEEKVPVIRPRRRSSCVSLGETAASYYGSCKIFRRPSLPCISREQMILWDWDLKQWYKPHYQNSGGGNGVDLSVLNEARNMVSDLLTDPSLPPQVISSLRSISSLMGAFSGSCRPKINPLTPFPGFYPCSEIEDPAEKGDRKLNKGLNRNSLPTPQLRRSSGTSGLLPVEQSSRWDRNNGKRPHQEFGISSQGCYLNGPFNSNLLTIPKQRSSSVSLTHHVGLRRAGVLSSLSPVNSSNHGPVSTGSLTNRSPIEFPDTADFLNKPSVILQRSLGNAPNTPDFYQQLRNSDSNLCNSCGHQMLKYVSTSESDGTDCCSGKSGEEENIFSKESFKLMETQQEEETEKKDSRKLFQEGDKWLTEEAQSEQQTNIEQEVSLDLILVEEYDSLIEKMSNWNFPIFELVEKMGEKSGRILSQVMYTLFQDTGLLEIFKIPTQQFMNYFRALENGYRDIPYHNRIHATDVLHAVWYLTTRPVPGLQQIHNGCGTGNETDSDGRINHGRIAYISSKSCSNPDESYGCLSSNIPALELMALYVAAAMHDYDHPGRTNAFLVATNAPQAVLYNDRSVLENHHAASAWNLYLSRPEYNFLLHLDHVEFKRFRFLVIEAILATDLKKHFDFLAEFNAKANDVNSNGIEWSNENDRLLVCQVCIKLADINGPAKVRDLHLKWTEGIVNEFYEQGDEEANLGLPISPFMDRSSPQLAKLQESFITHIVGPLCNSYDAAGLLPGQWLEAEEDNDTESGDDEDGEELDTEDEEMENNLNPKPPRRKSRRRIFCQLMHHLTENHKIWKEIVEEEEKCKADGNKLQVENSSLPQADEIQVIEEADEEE

O=C1CN2Cc3c(Cl)cccc3N=C2N1
EC50 (HeLa [1]): 42.9 nM

O=C1CN2Cc3c(ccc(-c4ccc(O)cc4)c3Cl)N=C2N1
EC50 (HeLa [1]): 12.3 nM

O=C1CN2Cc3c(ccc(F)c3Cl)N=C2N1
EC50 (HeLa [1]): 34.2 nM

Cc1ccccc1-c1ccc2c(c1Cl)CN1CC(=O)NC1=N2
EC50 (HeLa [1]): 1.09 nM

CCN(CC)c1ccc(C2=NNC(=O)C[C@H]2C)cc1[N+](=O)[O-]
Kd [2]: 320 nM | IC50 [3]: 100 nM | Kd (Ribonuclease SLFN12 [4]): 65 nM | Kd [5]: 40 nM | Kd (Ribonuclease SLFN12 [6]): 870 nM | IC50 [7]: 25 nM

C[C@]12CC[C@@H]3c4ccc(O)cc4CC[C@H]3[C@@H]1CC[C@@H]2O [ESTRADIOL]
EC50 (HeLa [1]): 0.7 nM

C[C@@H]1C(=O)NC2=Nc3cccc(Cl)c3CN21 [QUAZINONE]
IC50 (Phosphodiesterase 3): 580 nM

C[C@@H]1OC(=O)NN=C1c1ccc(-c2ccc(F)cc2)c(C(F)(F)F)c1
EC50 (HeLa [1]): 1.3 nM

O=C1CN2Cc3c(ccc(-c4ccoc4)c3Cl)N=C2N1
EC50 (HeLa [1]): 0.6 nM

O=C1CN2Cc3c(cc(Cl)c(-c4ccccc4)c3Cl)N=C2N1
EC50 (HeLa [1]): 1.14 nM

O=C1CN2Cc3c(ccc(-c4ccc(Cl)cc4)c3Cl)N=C2N1
EC50 (HeLa [1]): 1.8 nM

CC1CC(=O)NN=C1c1ccc2c(c1)CCC(=O)N2C (stereo unspecified)
IC50 (Phosphodiesterase 3): 90 nM

COc1cc(-c2ccc(=O)[nH]n2)ccc1OC(F)F [ZARDAVERINE]
EC50 [8]: 56.8 nM

CCc1ccc(-c2ccc3c(c2Cl)CN2CC(=O)NC2=N3)cc1
EC50 (HeLa [1]): 1.8 nM

O=C1CN2Cc3c(ccc(-c4ccsc4)c3Cl)N=C2N1
EC50 (HeLa [1]): 1.77 nM

Cc1cccc(-c2ccc3c(c2Cl)CN2CC(=O)NC2=N3)c1
EC50 (HeLa [1]): 1.37 nM

Cc1ccc(-c2ccc3c(c2Cl)CN2CC(=O)NC2=N3)cc1
EC50 (HeLa [1]): 0.3 nM

O=C1CCc2cc(OCCCCc3nnnn3C3CCCCC3)ccc2N1 [CILOSTAZOL]
IC50 (Phosphodiesterase 3): 200 nM

O=C1CN2Cc3c(ccc(-c4ccccc4)c3Cl)N=C2N1
EC50 (HeLa [1]): 0.56 nM

O=C1CN2Cc3c(ccc(-c4ccncc4)c3Cl)N=C2N1
EC50 (HeLa [1]): 6.22 nM

N#Cc1ccc(-c2ccc3c(c2Cl)CN2CC(=O)NC2=N3)cc1
EC50 (HeLa [1]): 2.38 nM

O=C1CN2Cc3c(ccc(Br)c3Cl)N=C2N1
EC50 (HeLa [1]): 2.53 nM

O=C1NC2=Nc3ccc(Cl)c(Cl)c3CN2C1O (stereo unspecified)
IC50 (Phosphodiesterase 3): 32 nM | EC50 [9]: 48 nM

O=C1CN2Cc3c(ccc(Cl)c3Cl)N=C2N1 [ANAGRELIDE]
inhibition in vivo at 4 mg/kg [10]: 47% | EC50 [11]: 80 nM | EC50 [12]: 270 nM | EC50 [13]: 390 nM | EC50 [14]: 80 nM | EC50 [15]: 500 nM | EC50 [16]: 400 nM | EC50 (HeLa [17]): 5.12 nM | EC50 [18]: 700 nM | half-life [19]: 7 h | inhibition in vivo at 1 mg/kg [20]: 24% | EC50 [21]: 310 nM | EC50 (HeLa [1]): 6.67 nM | half-life [22]: 19 h | EC50 [23]: 740 nM | EC50 [24]: 310 nM | EC50 [25]: 150 nM | EC50 [26]: 1200 nM | EC50 [27]: < 1 µg/mL | EC50 (HeLa [28]): 4 nM | EC50 [9]: 27 nM | ED50 (Oryctolagus cuniculus): 2.5 mg/kg
